Assay results from patent publication US20210259981A1, “COMPOSITIONS AND METHODS OF TREATMENT” (Blueberry Therapeutics Limited, priority 2018, published 2021).
≈ marks a conversion by molar mass, not a printed value.

What was measured:
[1] = Franz cell porcine skin permeation, ToF-SIMS tape strip analysis; type: in vitro ADME, pig; details: for evidence of permeation (key findings): porcine skin, ToF-SIMS imaging and tape stripping, with or without Nanocin
[2] = tested on: IL-8 release, THP-1 cells; test: LPS-stimulated IL-8 release in THP-1 cells (inflammation assay); type: cell-based, human; details: for MIC (inhibiting the LPS IL-8 response): API dose range 0-30 ug/ml; for potency at inhibiting the LPS inflammatory response (in words): IL-8, dose range 0-30 ug/ml
[3] = Solubility of APIs in ethanol & water vehicles; type: physicochemical; details: for Solubility in water and ethanol (in words): comparison among the screened APIs
[4] = tested on: TNF-α release, THP-1 cells; test: LPS-stimulated TNF-α release in THP-1 cells (inflammation assay); type: cell-based, human; details: final concentration 1 or 0.1 ug/ml; normalised with cell count
Protocol: The release of cytokines (looking particularly at those associated with inflammation-TNF-α, IL-8, IL-1α) after stimulation with lipopolysaccharide (LPS) is a valid model system to test compounds for potential anti-inflammatory effects (Reference 1)
To standardise conditions for the assay, a LPS dose (0-1 ug/ml) was investigated on TNF-α, IL-8 and IL-1α response, over a time period from 2, 4 and 24 hours.
A 1:1 mg/ml (Nanocin:API) was initially formulated in 20% ethanol and the stock formulation was then diluted down with serum free media and tested at a final concentration of 1 or 0.1 ug/ml.

[5] = Franz cell porcine skin permeation, ToF-SIMS cross sectional analysis; type: in vitro ADME, pig; details: cross sections; 1 mg/ml Diclofenac; partial embedding
Protocol: The experimental work involved applying various formulations to the skin in a Franz cell, leaving it for 24 hours as an infinite dose. Initial formulations were 1 mg/ml Nanocin and 300 ug/ml API in 20% ethanol. The same concentration of formulation were also used using FITC labelled Nanocin. Methods of detection was by: Franz Cell Method 1: Full OCT Embedding Method and Cryo-Sectioning; Franz Cell Method 2: Partial OCT Embedding and Cryo-Sectioning; Franz Cell Method 3: Partial OCT Embedding and Tape Stripping; and Time-of-Flight Secondary Ion Mass Spectrometry (ToF-SIMS) Fluorescence Microscopy.
Porcine ears used for the Franz cell analysis were sourced from a local abattoir. The age of the pig slaughtered were between 4-6 months old. The ears were cleaned with deionised water and the outside skin was carefully removed from the underlying cartilage. The excised skin was then stored at −20° C. until use. All ears used for the permeation experiment were within 6 months after procurement.
Prior to setting up the Franz cells, the skin was defrosted by leaving it at room temperature and pressure. Excess hairs on the porcine skin were not trimmed in this instance (to promote capacity to identify follicular delivery). […]

SMILES	evidence of permeation (key findings) [1]	MIC (inhibiting the LPS IL-8 response) ([2]; THP-1 cells, 24 h) [µg/mL]	Solubility in water and ethanol (in words) [3]	potency at inhibiting the LPS inflammatory response (in words) ([2]; THP-1 cells)	other results
CO[C@H]1C[C@@H]2CC[C@@H](C)[C@@](O)(O2)C(=O)C(=O)N2CCCC[C@H]2C(=O)O[C@H]([C@H](C)C[C@@H]2CC[C@@H](O)[C@H](OC)C2)CC(=O)[C@H](C)/C=C(\C)[C@@H](O)[C@@H](OC)C(=O)[C@H](C)C[C@H](C)/C=C/C=C/C=C/1C [Rapamycin]	no evidence	1 (≈ 1.09 µM)	–	–	–
Cc1ccc(-c2cc(C(F)(F)F)nn2-c2ccc(S(N)(=O)=O)cc2)cc1 [Celecoxib]	–	–	insolubility	–	–
C=CC[C@@H]1/C=C(\C)C[C@H](C)C[C@H](OC)[C@H]2O[C@@](O)(C(=O)C(=O)N3CCCC[C@H]3C(=O)O[C@H](/C(C)=C/[C@@H]3CC[C@@H](O)[C@H](OC)C3)[C@H](C)[C@@H](O)CC1=O)[C@H](C)C[C@@H]2OC [Tacrolimus]	no evidence	0.3 (≈ 0.373 µM)	–	more potent than Ibuprofen	anti-inflammatory effect, IL-8 normalised with cell count ([2]; 30 ug/ml API, 10 ug/ml LPS, 24 h): more effective anti-inflammatory; Solubility ([3]; 10 mg/ml API solution, 10% ethanol): x(better)
O=C(O)Cc1ccccc1Nc1c(Cl)cccc1Cl [Diclofenac]	–	1 (≈ 3.38 µM)	most soluble	more potent than Ibuprofen	LPS-stimulated TNF-α response [4]: reduced; presence of NaCl2— and Na2Cl3— ions (diclofenac markers) ([1]; tape strips 1-3, 1 mg/ml Diclofenac): none; LPS-stimulated IL-8 response ([2]; final concentration 1 or 0.1 ug/ml, normalised with cell count): reduced; intensity of Cl—, NaCl2- and Na2Cl3- markers in the stratum corneum [5]: slight elevation
CC(C)Cc1ccc(C(C)C(=O)O)cc1 (stereo not drawn) [Ibuprofen]	no evidence	–	better solubility	–	effect on reducing the IL-8 release ([2]; 30 ug/ml API, LPS 24 h, THP-1 cells): very little effect
